Measured values taken from patent US12721342B2, “Agricultural composition of indoleacetic acid having increased photostability, process for the production and use thereof” (TOTAL BIOTECNOLOGIA INDÚSTRIA E COMÉRCIO S/A, priority 2021, dated 2026).

Legend:
[1] = depending on the wavelength and intensity; cited from earlier work
[2] = Photostability to UV light, first assay (IAA concentration by Salkwolski reagent); type: physicochemical
Description: For validating the formulation that guarantees photostability of the indoleacetic acid phytohormone, two procedures were carried out. In the first assay, the following was compared: i) synthetic IAA with water (with no protection from melanoidins); ii) synthetic IAA with the same culture medium used in the biological IAA production process of the present invention and iii) biological IAA; all samples being subjected to the sterilization process at 121° C. for approximately 1 hour, as claimed for the stabilization of indole compounds due to the production of melanoidins via Maillard reaction. After the period of time required for stabilization, IAA concentrations were assessed using Salkwolski reagent according to the methodology proposed by Glickmann and Dessaux (1994).

Structure (SMILES) | reduction of IAA by light decomposition [1] | photodegradation ([2]; 1 hour of exposure to UV light, samples sterilized at 121° C. for approximately 1 hour) [%] | degradation by UV light (in words) ([2]; after 4 hours of exposure to UV light)
O=C(O)Cc1c[nH]c2ccccc12 [IAA, indoleacetic acid] | up to 90% |  | 
O=C(O)Cc1c[nH]c2ccccc12 [indoleacetic acid] |  | 74.5 | fully degraded
